In brackets after ≈: the same amount, converted by molar mass. Entries after “also recorded” stand apart in the source; their conditions may differ.
How the values were obtained:
[1] = test system: Male Long Evans rats; experiment: Ethanol operant self-administration in rats (30 min FR3 session, 10% EtOH); format: in vivo, rat
Experimental: Separate groups of rats were given the D2 antagonist eticlopride (0.005, 0.007, 0.01 mg/kg), the A2A antagonist DMPX (1, 3, 5, 7, 10 and 20 mg/kg) and the Al antagonist DPCPX (0.125, 0.25, 0.5 mg/kg) by systemic injections.
Male Long Evans rats (Harlan, Indianapolis, Ind.) weighing approximately 250 g at the beginning of the studies, were individually housed with food and water available ad libitum except when stated otherwise. They were maintained on a 12 h light/dark cycle, lights on at 7:00 am. Operant training occurred between 8:30 am and 2:00 pm. The experimental procedures were approved in advance by our Institutional Animal Care and Use Committee.
(§1) EtOH dilution (10% v/v) for self-administration was made up using 95% ethyl alcohol and tap water. Sucrose (Saccharose, Fisher Scientific, Fair Lawn, N.J., USA) solution (10% w/v) was made up with tap water. All the compounds tested were obtained from Sigma Chemical Co. (St. Louis, Mo.). The A2A antagonist DMPX (3,7-Dimethyl-1-propargylxanthine) was dissolved in warm saline. The A1 antagonist DPCPX (8-Cyclopentyl-1,3-dipropylxanthine) was dissolved in 20:80 v/v mixture of Alkamuls EL-620 (Rhodia Inc., Cranbury, N.J., USA) and phosphate buffered saline. The D2 antagonist, eticlopride, was dissolved in saline. Drugs were administered in a 1 ml/kg volume except for the group tested with 5, 7 and 20 mg/kg DMPX, in which the injection volume was 2 ml/kg as the highest DMPX soluble concentration achieved was 10 mg/ml. Drugs were prepared fresh every treatment day.
EtOH operant self-administration was carried out in standard operant chambers (Med Associates, Georgia, Vt.) housed in sound-attenuated cubicles. Each chamber (33×30.5×33 cm) contained two retractable levers against the right wall, 7 cm from the floor and 1 cm from the right or left edge of the right wall, respectively. One recessed dish positioned at 2.5 cm above floor level and 6 cm from the levers towards the center of the chamber was the reinforcer receptacle. Fluid (0.1 ml) was delivered from syringe pumps upon activation of 1 of the 2 retractable response levers. A 3 sec tone was activated upon lever pressing. […] The beginning of a training session was signaled by the onset of the house light located in the center of the wall facing the levers, at 27.2 cm above the floor. A computer controlled stimulus and fluid delivery and recorded operant responses.
Before the beginning of EtOH operant self-administration, rats were exposed to a 10% EtOH (1OE) solution as the only liquid source in their home cages for 4 days. For the next 14 days, animals were allowed free choice between 10E in tap water or tap water from graded glass tubes. At the end of this 14-day period, operant self-administration was initiated according to the sucrose fading technique (Samson, 1986) with minor modifications. Rats were restricted to 30 minutes of water per day for 2 consecutive days. On the night of the second day of water restriction, rats were placed in the operant chambers for a 12-15 hrs overnight session on an FR1 schedule (1 reinforcement of 0.1 ml per lever press) with 10% sucrose (10S) as reinforcer and both levers active. The next day, rats began the operant self-administration training. Animals were kept on water restriction for the next 4-5 days during which they received one 45 min session per day on an FR1 schedule with 10S as reinforcer and one active lever. They were then given free water in their home cages for the remainder of the experiment and were trained for 2-3 more of the above described sessions. The next day, sessions were shortened to 30 minutes and the ratio of responding was increased to FR3. EtOH was added to the sweet solution (10S10E) and rats received 3-4 sessions of this solution, followed by at least 20 sessions with 10E only. A minimum average of 0.3 g/kg EtOH consumption in 8 sessions prior to the beginning of any drug treatment was required. […]

[2] = Highest soluble concentration of DMPX in the injection vehicle; format: physicochemical; conditions: saline or isotonic; dissolved in warm saline; read-out: highest DMPX soluble concentration achieved
Experimental: as §1

[3] = DMPX 1 mg/kg ip, vs saline, p<0.03
[4] = DMPX 10 mg/kg ip, vs saline, p<0.02
[5] = DMPX 20 mg/kg ip, vs saline, p<0.05
[6] = DPCPX 0.125, 0.25, or 0.5 mg/kg ip, ANOVA NS

## CCc1cc(Cl)c(OC)c(C(=O)NC[C@@H]2CCCN2CC)c1O [eticlopride]
[1]; eticlopride 0.005 mg/kg sc, vs saline
  any of the analyzed measurements (lever presses, reinforcements, g/kg EtOH): did not significantly affect
[1]; eticlopride 0.007 mg/kg sc, vs saline, decrease, p<0.005
  number of lever presses: significant effects
[1]; eticlopride 0.007 mg/kg sc, vs saline, decrease, p<0.01
  g/kg of EtOH consumption: significant effects
[1]; eticlopride 0.007 mg/kg sc, vs saline, decrease, p<0.02
  number of reinforcements: significant effects
[1]; eticlopride 0.01 mg/kg sc, vs saline, decrease, p<0.0001
  number of lever presses: significant effects
[1]; eticlopride 0.01 mg/kg sc, vs saline, decrease, p<0.004
  g/kg of EtOH consumption: significant effects
[1]; eticlopride 0.01 mg/kg sc, vs saline, decrease, p<0.007
  number of reinforcements: significant effects
[1]; eticlopride 0.005-0.01 mg/kg sc
  EtOH self-administration, effect across doses: dose-dependently decreased
[1]; eticlopride 0.005-0.01 mg/kg sc, listed as Eticlopride
  EtOH self-administration, effect across doses: dose-dependently reduced

## C#CCn1c(=O)c2c(ncn2C)n(C)c1=O [DMPX, 3,7-Dimethyl-1-propargylxanthine]
[1]; DMPX 1 mg/kg ip, vs saline, p<0.02
  number of lever presses: significantly increased
[1]; [3]
  g/kg of EtOH intake: significantly increased
  number of EtOH reinforcements: significantly increased
[1]; DMPX 3 mg/kg ip, vs saline
  any of the measures (lever presses, EtOH reinforcements, g/kg EtOH): did not significantly affect
[1]; DMPX 5 mg/kg ip, vs saline
  any of the measures (lever presses, EtOH reinforcements, g/kg EtOH): did not significantly affect
[1]; DMPX 7 mg/kg ip, vs saline
  any of the measures (lever presses, EtOH reinforcements, g/kg EtOH): did not significantly affect
[1]; [4]
  g/kg of EtOH consumption: significantly decreased
  number of lever presses: significantly decreased
[1]; DMPX 10 mg/kg ip, vs saline, p<0.03
  number of EtOH reinforcements: significantly decreased
[1]; [5]
  g/kg EtOH intake: decreased
  number EtOH reinforcements: significant effect
[1]; DMPX 1-20 mg/kg ip
  EtOH self-administration, dose-effect function: bimodal effect
[2]
  solubility: 10000 µg/mL (≈ 45.8 mM)

## CCCn1c(=O)c2[nH]c(C3CCCC3)nc2n(CCC)c1=O [DPCPX, 8-Cyclopentyl-1,3-dipropylxanthine]
[1]; [6]
  g/kg of EtOH consumption: no effect
  number of EtOH reinforcements: no effect
  number of lever presses: no effect
[1]; DPCPX 0.125-0.5 mg/kg ip
  EtOH self-administration, effect across doses: without effect; also recorded: did not affect

Source: patent US20060128708A1, “Antagonizing an adenosine A2A receptor to ameliorate one or more components of addictive behavior” (priority 2004, published 2006)
